In publication PMC9515143, “Phosphorylation of Jhd2 by the Ras-cAMP-PKA(Tpk2) pathway regulates histone modifications and autophagy” (Nature Communications, 2022):

How the values were obtained:
H3R2me2a = assay: Western blot of H3R2me2a after glucose; assay type: cell-based, budding yeast (Saccharomyces cerevisiae); settings: for H3R2me2a/H3: 0.5 hr
Experimental: (§1) To examine the effect of glucose on histone modifications, yeast cells were grown in 2% glucose-containing YPD (Yeast Extract Peptone Dextrose) medium until OD600 of 0.7–1.0. Cells were then collected, washed and resuspended in YP medium for 3 hr followed by treatment with different concentrations of glucose for 0.5 hr. For 1NM-PP1 (MCE, HY-13804) treatment, cells were grown in 2% YPD until OD600 of 0.7–1.0. Cells were then treated with 25 μM 1NM-PP1 for 0.5 hr. For FBP and pyruvate treatment, cells were pre-treated with Zymolase (Mpbio, 08320921) to increase the permeability. In brief, cells were grown in YPD medium until OD600 of 0.7–1.0, centrifuged and resuspended in 1 ml SB buffer (100 mM Sorbitol, 20 mM Tris pH 7.4). 10 μl Zymolase was then added and incubated at 30 °C for 15 min. The spheroplasts were washed and cultured in YPD medium containing different concentrations of FBP and pyruvate for 3 hr.
(§2) Cells were grown in 5 ml YPD or selective medium until OD600 of 0.7–1.0. Cells were harvested and lysed in alkaline lysis buffer (2 M NaOH, 8% 2-mercaptoethanol). After centrifugation, the protein pellet was resuspended in 150 μl 2×SDS-sample buffer. Protein samples were separated by 8–15% SDS-PAGE and transferred to PVDF membrane. The blots were probed with primary antibodies followed by incubation with horseradish peroxidase-labelled IgG secondary antibodies. The protein bands were visualized using the ECL Chemiluminescence Detection Kit (Bio-Rad, 170–5061) and quantified with Image J software (v.1.8.0).
Supplementary Fi g . […] WT (a) and H2B-F LA G cel ls (b) wer e grown in YPD medium until OD600 of 0.7.
Cells were th en tr eat ed with YP medium supplement ed with differen t concentrations of glucos e for 0.5 hr. C ells were h ar vested an d the ex tract ed histones w er e anal yz ed by Western blots with indicat ed ant ibodies. To d et ect H2B monoubiquitination, H2B-F LAG strain w as used and d et ect ed with anti -F LAG ant ibody. Th e upper bands ar e monoubiquitinat ed H2B-F LAG. c E ff e c t of gl ucose on histone modifications in WT and ubp8∆ ubp10∆ mutant. WT and ubp8∆ ubp10∆ mut ant w er e gro wn in YPD medium unti l OD600 of 0.7. Cells wer e th en treated with YP medium supplem ent ed with di fferent con cen tr ations of gl u cos e fo r 0.5 hr. d Gluco se has no effect on the activit y of C O M PA S S . Spp1-TA P cells wer e grown in YPD medium until OD600 of 1.5. Cells were h arv est ed and then treat ed with YP + 0.05% glucos e and YP + 4% gl u cos e for 0.5 hr. Spp1-cont aining COMPASS (Spp1-CBP ) was then p urifi ed by tand em affinit y puri fi cati on ( TA P ) . Th e in vitro hi stone meth yltransferase assa y was p er form ed wit h purifi ed C O M PA S S and in vitro assembl ed nucl eosom es. e E ff e c t of the m TO R pathwa y on H3K4 meth ylation. […]
(§3) For Supplem ent ar y Fi g. 1b, e-g, i-k, d at a r ep res ent means ± SEM; n=3 i ndependent ex perim ents. For Supplem entar y Fi g. 1c, d ata represent means ± SEM; n=4 independent ex periments. Tw o -sided t-tests were used for statistical analysis.

histone modifications = assay: Effect of glucose on histone modifications in WT and ubp8∆ ubp10∆ mutant (Western blot); assay type: cell-based, budding yeast (Saccharomyces cerevisiae); settings: for relative histone modification level (Figure S1c): 0.5 hr
Excerpt: To identify the signaling pathway that mediates glucose-induced H3K4me3, we first examined the effect of glucose on histone modifications that regulate Set1-catalyzed H3K4me3, including H2BK123 monoubiquitination (H2Bub) and H3R2 asymmetric dimethylation (H3R2me2a)[30]–[32]. […] We then determine whether glucose increases H3K4me3 by inducing H2Bub. As there is no H3K4me3 in the deletion mutants of RAD6 and BRE1, which catalyze H2Bub[30],[31], it is impossible to determine the effect of glucose on H3K4me3 in rad6Δ and bre1Δ mutants. We thus examined the effect of glucose on H3K4me3 in the deletion mutant of UBP8 and UBP10, which encode H2B ubiquitin proteases[33],[34]. […] We also examined the effect of glucose on the activity of Set1-containing complex (COMPASS).
as §1, §2
Supplementary Fi g . 1 Glu cose induces H3K4me 3 via the Ras-cAMP-PKA(T p k 2) pathway. […]
Cells were th en tr eat ed with YP medium supplement ed with differen t concentrations of glucos e for 0.5 hr. C ells were h ar vested an d the ex tract ed histones w er e anal yz ed by Western blots with indicat ed ant ibodies. To d et ect H2B monoubiquitination, H2B-F LAG strain w as used and d et ect ed with anti -F LAG ant ibody. Th e upper bands ar e monoubiquitinat ed H2B-F LAG. c E ff e c t of gl ucose on histone modifications in WT and ubp8∆ ubp10∆ mutant. WT and ubp8∆ ubp10∆ mut ant w er e gro wn in YPD medium unti l OD600 of […]
as §3

Structure (SMILES): OC[C@H]1OC(O)[C@H](O)[C@@H](O)[C@@H]1O (stereo partly drawn) [glucose]
- H3R2me2a/H3 (H3R2me2a; 0.5% glucose, relative to 0.05% glucose = 1, replicate 1): 1.016
- H3R2me2a/H3 (H3R2me2a; 0.5% glucose, relative to 0.05% glucose = 1, replicate 2): 0.8082
- H3R2me2a/H3 (H3R2me2a; 0.5% glucose, relative to 0.05% glucose = 1, replicate 3): 1.063
- H3R2me2a/H3 (H3R2me2a; 1% glucose, relative to 0.05% glucose = 1, replicate 1): 1.0068
- H3R2me2a/H3 (H3R2me2a; 1% glucose, relative to 0.05% glucose = 1, replicate 2): 0.9832
- H3R2me2a/H3 (H3R2me2a; 1% glucose, relative to 0.05% glucose = 1, replicate 3): 1.068
- H3R2me2a/H3 (H3R2me2a; 2% glucose, relative to 0.05% glucose = 1, replicate 1): 0.9685
- H3R2me2a/H3 (H3R2me2a; 2% glucose, relative to 0.05% glucose = 1, replicate 2): 0.8294
- H3R2me2a/H3 (H3R2me2a; 2% glucose, relative to 0.05% glucose = 1, replicate 3): 0.8742
- H3R2me2a/H3 (H3R2me2a; 4% glucose, relative to 0.05% glucose = 1, replicate 1): 1.047
- H3R2me2a/H3 (H3R2me2a; 4% glucose, relative to 0.05% glucose = 1, replicate 2): 0.9174
- H3R2me2a/H3 (H3R2me2a; 4% glucose, relative to 0.05% glucose = 1, replicate 3): 0.9548
- H3R2me2a level (H3R2me2a; glucose 0.5 hr, Western blot): had no significant effect on H3R2me2a
- relative histone modification level (Figure S1c) (histone modifications; WT, 0.5% glucose, relative to WT 0.05% = 1, replicate 1): 1.436
- relative histone modification level (Figure S1c) (histone modifications; WT, 0.5% glucose, relative to WT 0.05% = 1, replicate 2): 1.642
- relative histone modification level (Figure S1c) (histone modifications; WT, 0.5% glucose, relative to WT 0.05% = 1, replicate 3): 1.498
- relative histone modification level (Figure S1c) (histone modifications; WT, 0.5% glucose, relative to WT 0.05% = 1, replicate 4): 1.3798
- relative histone modification level (Figure S1c) (histone modifications; WT, 2% glucose, relative to WT 0.05% = 1, replicate 1): 1.805
- relative histone modification level (Figure S1c) (histone modifications; WT, 2% glucose, relative to WT 0.05% = 1, replicate 2): 2.101
- relative histone modification level (Figure S1c) (histone modifications; WT, 2% glucose, relative to WT 0.05% = 1, replicate 3): 2.2062
- relative histone modification level (Figure S1c) (histone modifications; WT, 2% glucose, relative to WT 0.05% = 1, replicate 4): 1.619
- relative histone modification level (Figure S1c) (histone modifications; WT, 4% glucose, relative to WT 0.05% = 1, replicate 1): 1.732
- relative histone modification level (Figure S1c) (histone modifications; WT, 4% glucose, relative to WT 0.05% = 1, replicate 2): 2.2477
- relative histone modification level (Figure S1c) (histone modifications; WT, 4% glucose, relative to WT 0.05% = 1, replicate 3): 2.452
- relative histone modification level (Figure S1c) (histone modifications; WT, 4% glucose, relative to WT 0.05% = 1, replicate 4): 2.7285
- H3K4me3 level in ubp8Δ ubp10Δ mutant (histone modifications; ubp8Δ ubp10Δ, glucose 0.5 hr, Western blot): H3K4me3 was still increased by glucose
- relative histone modification level (Figure S1c) (histone modifications; ubp8Δubp10Δ, 0.05% glucose, relative to WT 0.05% = 1, replicate 1): 1.962
- relative histone modification level (Figure S1c) (histone modifications; ubp8Δubp10Δ, 0.05% glucose, relative to WT 0.05% = 1, replicate 2): 2.0252
- relative histone modification level (Figure S1c) (histone modifications; ubp8Δubp10Δ, 0.05% glucose, relative to WT 0.05% = 1, replicate 3): 1.753
- relative histone modification level (Figure S1c) (histone modifications; ubp8Δubp10Δ, 0.05% glucose, relative to WT 0.05% = 1, replicate 4): 1.8754
- relative histone modification level (Figure S1c) (histone modifications; ubp8Δubp10Δ, 0.5% glucose, relative to WT 0.05% = 1, replicate 1): 2.076
- relative histone modification level (Figure S1c) (histone modifications; ubp8Δubp10Δ, 0.5% glucose, relative to WT 0.05% = 1, replicate 2): 2.387
- relative histone modification level (Figure S1c) (histone modifications; ubp8Δubp10Δ, 0.5% glucose, relative to WT 0.05% = 1, replicate 3): 2.436
- relative histone modification level (Figure S1c) (histone modifications; ubp8Δubp10Δ, 0.5% glucose, relative to WT 0.05% = 1, replicate 4): 1.826
- relative histone modification level (Figure S1c) (histone modifications; ubp8Δubp10Δ, 2% glucose, relative to WT 0.05% = 1, replicate 1): 2.343
- relative histone modification level (Figure S1c) (histone modifications; ubp8Δubp10Δ, 2% glucose, relative to WT 0.05% = 1, replicate 2): 2.512
- relative histone modification level (Figure S1c) (histone modifications; ubp8Δubp10Δ, 2% glucose, relative to WT 0.05% = 1, replicate 3): 2.749
- relative histone modification level (Figure S1c) (histone modifications; ubp8Δubp10Δ, 2% glucose, relative to WT 0.05% = 1, replicate 4): 2.579
- relative histone modification level (Figure S1c) (histone modifications; ubp8Δubp10Δ, 4% glucose, relative to WT 0.05% = 1, replicate 1): 3.366
- relative histone modification level (Figure S1c) (histone modifications; ubp8Δubp10Δ, 4% glucose, relative to WT 0.05% = 1, replicate 2): 3.228
- relative histone modification level (Figure S1c) (histone modifications; ubp8Δubp10Δ, 4% glucose, relative to WT 0.05% = 1, replicate 3): 2.75
- relative histone modification level (Figure S1c) (histone modifications; ubp8Δubp10Δ, 4% glucose, relative to WT 0.05% = 1, replicate 4): 2.722
